According to PMC8270301, “Novel Facet of an Old Dietary Molecule? Direct Influence of Caffeine on Glucose and Biogenic Amine Handling by Human Adipocytes” (Molecules, 2021):

Key:
[1] = target: T1, primary amine oxidase (SSAO/PrAO/VAP-1) (Homo sapiens, UniProt Q16853); assay: Amplex Red hydrogen peroxide release in tissue homogenate, Lineweaver-Burk plot; assay type: cell-based
T1 construct: gene AOC3; native enzyme in homogenates of human subcutaneous adipose tissue
T1 sequence (Q16853 1-763): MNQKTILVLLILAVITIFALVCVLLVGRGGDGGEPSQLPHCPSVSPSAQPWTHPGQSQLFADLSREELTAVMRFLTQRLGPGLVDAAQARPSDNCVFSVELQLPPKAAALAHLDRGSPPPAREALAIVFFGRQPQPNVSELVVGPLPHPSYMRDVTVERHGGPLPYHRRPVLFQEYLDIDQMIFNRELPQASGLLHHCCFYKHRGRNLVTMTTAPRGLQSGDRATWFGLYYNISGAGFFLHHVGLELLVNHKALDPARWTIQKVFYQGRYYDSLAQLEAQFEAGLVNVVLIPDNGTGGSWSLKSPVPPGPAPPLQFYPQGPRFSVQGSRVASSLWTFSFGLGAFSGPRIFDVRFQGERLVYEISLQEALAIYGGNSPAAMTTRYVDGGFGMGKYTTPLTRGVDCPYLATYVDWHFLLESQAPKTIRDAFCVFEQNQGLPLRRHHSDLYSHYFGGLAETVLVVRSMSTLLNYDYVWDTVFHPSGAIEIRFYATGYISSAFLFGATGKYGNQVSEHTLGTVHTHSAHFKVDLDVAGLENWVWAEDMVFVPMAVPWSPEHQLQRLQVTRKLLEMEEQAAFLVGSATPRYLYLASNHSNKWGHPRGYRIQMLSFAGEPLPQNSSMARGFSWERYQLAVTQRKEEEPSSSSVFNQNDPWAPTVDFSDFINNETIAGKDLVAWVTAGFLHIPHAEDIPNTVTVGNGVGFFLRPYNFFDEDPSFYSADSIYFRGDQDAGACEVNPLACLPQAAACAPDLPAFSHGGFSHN

[2] = target: T1, primary amine oxidase (SSAO/PrAO/VAP-1); assay: Amplex Red hydrogen peroxide assay of benzylamine oxidation in tissue homogenate, Lineweaver-Burk analysis; assay type: biochemical

Structure (SMILES)	Amplex Red hydrogen peroxide release in tissue homogenate, Lineweaver-Burk plot [1]	Ki [2]
NCc1ccccc1 [benzylamine]	Lineweaver–Burk plot of the inhibition of benzylamine oxidation by increasing doses of caffeine	
Cn1c(=O)c2c(ncn2C)n(C)c1=O [caffeine, 1,3,7-trimethylxanthine]		880 µM
